# Measurements published in patent US12522590B2, “Brefeldin a derivatives, preparation method and use thereof” (OCEAN UNIVERSITY OF CHINA, priority 2019, dated 2026).
# Read-outs that look alike come from different tables or passages of the source.
# Columns and labels:
# [1] = Solubility test (shake 37° C., 24 h, HPLC); type: physicochemical; conditions: x ± s; for solubility at 24 h: thermodynamic from solid
# Protocol: The term “solubility” refers to the mass of solute dissolved when a solid substance reaches saturation state in 100 g solvent at a certain temperature. Solubility test refer to the following references: ZHU Shang-bin, et al. Preparation, characterization, and physicochemical properties of arbutin phospholipid complex[J]. Chinese Traditional and Herbal Drugs. 2020, 1-10.
# Methods: Excess BFA and the compounds disclosed herein were added to 10 mL of three solvents, methanol, acetone and 5% DMSO+95% H2O, respectively, and shaken on a shaker at 37° C. at 100 r/min for 24 h. After 24 h, the samples were centrifuged at 15 000 r/min for 15 min to remove the undissolved compounds. The supernatant was filtered using a 0.45 μm membrane filter. The supernatant was appropriately diluted with methanol and contents of the compounds were determined by HPLC method to calculate the solubility.
# [2] = test system: Human cervical cancer cells Hela; test: Cell proliferation assay (CCK-8); type: cell-based; conditions: 72 h
# Source text: (§1) CCK-8 method: The CCK-8 method is a highly sensitive, non-radioactive colorimetric assay for the determination of the number of viable cells in cell proliferation or cytotoxicity assays. The orange formazan dye produced by the bioreduction of CCK-8 by intracellular dehydrogenase is soluble in the cell culture medium, and the amount of formazan dye produced is proportional to the number of living cells. The kit used in this method is the tetrazolium salt-WST-8 (2-(2-methoxy-4-nitrophenyl)-3-(4-nitrophenyl)-5-(2,4-disulfophenyl)-2H-tetrazolium monosodium salt) developed by Dojindo Chemical Research Institute (Dojindo), which is capable of being reduced to a water-soluble formazan dye in the presence of the electronic carrier 1-Methoxy PMS.
# (§2) Human cervical cancer cells Hela, pancreatic cancer cells PANC-1, esophageal cancer cells Eca-109, human leukemia cells K562, human lung cancer cells A549, human liver cancer cells HepG2, human gastric cancer cells MKN-45, human breast cancer cells MCF7 were cultured in DMEM medium containing 10% FBS (fetal bovine serum), 100 U/mL penicillin and 100 μg/ml streptomycin. Hepatocellular carcinoma cells Bel-7402 were cultured in RPMI-1640 medium containing 10% FBS (fetal bovine serum), 100 U/ml penicillin and 100 μg/ml streptomycin. All cells were placed in a cell culture incubator at 37° C. with 5% CO2. Cells fluid was changed every 3-5 days, and after 80% cell fusion, trypsin digestion and passaging were performed to keep the cells in good logarithmic growth phase.
# (§3) All the samples to be tested were dissolved in DMSO.
# (§4) Cells in logarithmic growth phase were inoculated in 96-well plates with 5000 cells/well respectively, and after 24 h of incubation, samples were added (final concentrations as shown in the table), and biplicate wells were set up for each sample. The amount of solvent of DMSO was not higher than 2‰. After 72 h, 10 μL of CCK-8 solution was added to each well and incubated for 1.5˜3 h at 37° C. The OD value at 450 nm was measured on an plate reader. Inhibition rate (%)=(1−[(OD450 dosed well−OD450 blank well)/(OD450 control well−OD450 blank well)])×100%
# (§5) The fitted IC50 values were calculated using the log (inhibitor) vs. response—Variable slop analysis method in GraphPad Prism software.
# [3] = test system: human breast cancer cells MCF7; test: Cell proliferation assay (CCK-8); type: cell-based; conditions: MCF7, 72 h
# Source text: as §1, §2, §3, §4, §5
# [4] = test system: human gastric cancer cells MKN-45; test: Cell proliferation assay (CCK-8); type: cell-based; conditions: MKN-45, 72 h
# Source text: as §1, §2, §3, §4, §5
# [5] = test system: human leukemia cells K562; test: Cell proliferation assay (CCK-8); type: cell-based; conditions: K562, 72 h
# Source text: as §1, §2, §3, §4, §5
# [6] = test system: human liver cancer cells HepG2; test: Cell proliferation assay (CCK-8); type: cell-based; conditions: HepG2, 72 h
# Source text: as §1, §2, §3, §4, §5
# [7] = test system: human lung cancer cells A549; test: Cell proliferation assay (CCK-8); type: cell-based; conditions: A549, 72 h
# Source text: as §1, §2, §3, §4, §5
# [8] = test system: esophageal cancer cells Eca-109; test: Cell proliferation assay (CCK-8); type: cell-based, human; conditions: Eca-109, 72 h
# Source text: as §1, §2, §3, §4, §5
# [9] = test system: pancreatic cancer cells PANC-1; test: Cell proliferation assay (CCK-8); type: cell-based, human; conditions: PANC-1, 72 h
# Source text: as §1, §2, §3, §4, §5
# [10] = test system: Kunming breed mice; test: Acute toxicity test, single intragastric administration; type: in vivo
# Source text: Objective: Observation of toxic effects of compounds after a single intragastric administration (ig.) to mice
# 1) Agents: Compounds disclosed herein were formulated to a suitable concentration.
# 2) Animals: Kunming breed mice, weight 18-22 g, male.
# [11] = Pharmacokinetic evaluation (plasma BFA by LC/MS/MS); type: in vivo, SD rats; conditions: for AUCINF / AUClast / Cmax / MRTINF / T1/2 / Tmax: iv
# Protocol: SD rats were weighed after an overnight fasting of 15 hours and randomly grouped according to weights. The appropriate amount of the compound was accurately weighed, and a final volume of 5% DMSO, 10% Solutol, and 85% Saline was added and vortexed or sonicated to make a thorough mixing to provide a 4 mg/mL solution for intravenous administration (iv.). Venous blood was taken at the time points of 0, 0.083 (iv. group only), 0.25, 0.5, 1.0, 2.0, 5.0, 7.0 and 24 h, via jugular vein or other suitable means, with approximately 0.20 mL of each sample collected, anticoagulated with sodium heparin (with 6.25 μL of 200 mM DDVP/tube added), and placed on ice after collection. The plasma was separated by centrifugation within 2 hours (centrifugal force 6800 g, 6 min, 2-8° C.). The collected plasma samples were stored in a −70° C. refrigerator before analysis, and the remaining plasma samples after analysis were kept stored at −20° C. or −70° C. until LC/MS/MS analysis was performed. The accuracy of QC samples was evaluated while analyzing the samples, and more than 66% of the QC samples were required to have an accuracy between 80-120%. When plasma drug concentration-time curves were plotted, BLQ were recorded as 0. For the calculation of pharmacokinetic parameters, the concentration before dosing was counted as 0; BLQ before Cmax (including “No peak”) was counted as 0; BLQ after Cmax (including “No peak”) was not included in the calculation. Pharmacokinetic parameters such as AUC(0-t), T1/2, Cmax, Tmax and MRT were calculated according to the blood concentration data of BFA at different time points using WinNonlin.
# [12] = SD rats, 20 mg/kg, blood concentration of BFA
# [13] = aqueous with cosolvent or surfactant or cyclodextrin, 5% DMSO + 95% H2O, n = 3, read-out: Solubility, 5% DMSO + 95% H2O
# [14] = organic solvent or mixture, acetone, n = 3, read-out: Solubility, Acetone
# [15] = organic solvent or mixture, methanol, n = 3, read-out: Solubility, Methanol
# [16] = mice, single ig., high and low doses (BFA effective amount conversion)
# [17] = Sprague-Dawley, rat, in vivo, 30 mg/kg
# [18] = mice, single ig., high and low doses (BFA effective amount conversion), within 72 h
SMILES,"solubility at 24 h [1, 13]","solubility at 24 h [1, 14]","solubility at 24 h [1, 15]",IC50 ([2]; Homo sapiens),IC50 ([3]; Homo sapiens),IC50 ([4]; Homo sapiens),IC50 ([5]; Homo sapiens),IC50 ([6]; Homo sapiens),IC50 ([7]; Homo sapiens),IC50 ([8]; Homo sapiens),IC50 ([9]; Homo sapiens),"Mental condition after administration [10, 16]","Death within 72 h [10, 18]",other results
"C[C@H]1CCC/C=C/[C@@H]2C[C@H](O)C[C@H]2[C@H](O)/C=C/C(=O)O1 [BFA, Brefeldin A]",–,–,–,–,–,–,–,–,–,–,–,–,–,"Solubility, 5% DMSO + 95% H2O ([1]; 5% DMSO + 95% H2O, n = 3): 0.085 ± 0.03 mg/mL; Solubility, Acetone ([1]; acetone, n = 3): 3.13 ± 1.24 mg/mL; Solubility, Methanol ([1]; methanol, n = 3): 3.13 ± 1.24 mg/mL; IC50 [2]: 100 to 1000 nM; IC50 [3]: < 100 nM; IC50 [4]: 100 to 1000 nM; IC50 [5]: 100 to 1000 nM; IC50 [6]: 100 to 1000 nM; IC50 [7]: 100 to 1000 nM; IC50 [8]: 100 to 1000 nM; IC50 [9]: < 100 nM; Mortality within 24 h ([10]; mice, single ig., high dose 1000 mg/kg, within 24 h): all animals died; Animals died within 72 h ([10]; mice, single ig., low dose 750 mg/kg, within 72 h): ⅔; AUCINF [11, 12]: 4448.31 ng·h/mL; AUClast [11, 12]: 4450.24 ng·h/mL; Cmax [11, 12]: 5744.26 ng/mL; MRTINF [11, 12]: 11.4 min; T1/2 [11, 12]: 25.2 min; Tmax [11, 12]: 15 min"
"C[C@H]1CCC/C=C/[C@@H]2C[C@H](OC(=O)OCc3cccnc3)C[C@H]2[C@H](O)/C=C/C(=O)O1 [Compound 1, BFA-7-(pyridine-3-ylmethyl)carbonate]",2.73 ± 0.21 mg/mL,68.7 ± 2.53 mg/mL,74.3 ± 2.52 mg/mL,100 to 1000 nM,100 to 1000 nM,< 100 nM,100 to 1000 nM,< 100 nM,< 100 nM,< 100 nM,100 to 1000 nM,good mental conditions,–,"Death within 72 h ([10]; mouse, in vivo): no death; AUCINF [11, 17]: 5763.29 ng·h/mL; AUClast [11, 17]: 5766.31 ng·h/mL; Cmax [11, 17]: 7192.20 ng/mL; MRTINF [11, 17]: 11.4 min; T1/2 [11, 17]: 15 min; Tmax [11, 17]: 15 min"
COc1ccc(COC(=O)O[C@@H]2C[C@H]3[C@H](O)/C=C/C(=O)O[C@@H](C)CCC/C=C/[C@@H]3C2)cn1 [Compound 6],2.95 ± 1.61 mg/mL,70.6 ± 1.44 mg/mL,70.4 ± 3.35 mg/mL,100 to 1000 nM,100 to 1000 nM,< 100 nM,100 to 1000 nM,100 to 1000 nM,< 100 nM,100 to 1000 nM,100 to 1000 nM,good mental conditions,no death,–
"C[C@H]1CCC/C=C/[C@@H]2C[C@H](OC(=O)OCc3cnc4ccccc4c3)C[C@H]2[C@H](O)/C=C/C(=O)O1 [Compound 11, BFA-7-(quinoline-3-ylmethyl)carbonate]",2.65 ± 1.8 mg/mL,67.6 ± 2.74 mg/mL,69.3 ± 4.35 mg/mL,100 to 1000 nM,100 to 1000 nM,100 to 1000 nM,100 to 1000 nM,100 to 1000 nM,100 to 1000 nM,< 100 nM,< 100 nM,good mental conditions,no death,–
"C[C@H]1CCC/C=C/[C@@H]2C[C@H](OC(=O)OCc3cccnc3)C[C@H]2[C@H](OC(=O)OCc2cccnc2)/C=C/C(=O)O1 [Compound D, reference compound]",0.51 ± 0.13 mg/mL,21.2 ± 1.12 mg/mL,20.4 ± 1.41 mg/mL,1000 to 10000 nM,100 to 1000 nM,1000 to 10000 nM,100 to 1000 nM,1000 to 10000 nM,100 to 1000 nM,1000 to 10000 nM,1000 to 10000 nM,–,–,"Blood concentrations detected within 1 h ([11]; rat, in vivo, 40 mg/kg): low blood concentrations; Drug in blood after 1 h ([11]; rat, in vivo, 40 mg/kg): basically undetectable"
